Laboratory results: ChEMBL document CHEMBL3877275, “Dihydroorotate dehydrogenase: A drug target for the development of antimalarials” (Eur J Med Chem, 2017)
pIC50: −log10 of the molar value.

Tests used:
[1] = Inhibition of Plasmodium falciparum DHODH
[2] = Selectivity ratio of IC50 for human DHODH to IC50 for Plasmodium falciparum DHODH
[3] = tested on: Plasmodium falciparum; test: Antiparasitic activity against Plasmodium falciparum NF54 infected in human erythrocytes by [3H]-hypoxanthine incorporation assay; assay type: functional, cell-based
[4] = Inhibition of Plasmodium falciparum DHODH expressed in Escherichia coli using L-dihydroorotate as substrate by DCIP-based spectrophotometric method
[5] = Inhibition of Plasmodium falciparum DHODH using L-dihydroorotate as substrate after 20 mins by DCIP-based assay

SMILES	pIC50 [3]	pIC50 [4]	also measured
Cc1c(C(=O)Nc2cc(Cl)cc(Cl)c2)cccc1[N+](=O)[O-]	4.92 to 5.30		pIC50 [1]: 6.10 to 7.70; Ratio IC50 [2]: 70 to 12500
CCOC(=O)C(=CNc1cccc(N(C)C)c1)C(=O)OCC	4.92 to 5.30		
COc1cccc2c1ncn2-c1ccc(C(=O)NC2CC2)s1			pIC50 [5]: 7.36
COc1ccccc1NC(=O)Nc1cccc2ccccc12	4.92 to 5.30		pIC50 [1]: 6.10 to 7.70; Ratio IC50 [2]: 70 to 12500
COc1ccc2c(c1)ncn2-c1ccc(C(=O)NC2CC2)s1			pIC50 [5]: 7.66
N#Cc1cccc2c1ncn2-c1ccc(C(=O)NC2CC2)s1			pIC50 [5]: 7.30

Second part, led by results:

pIC50 [3]	pIC50 [4]	SMILES	also measured
4.92 to 5.30		O=C(Nc1ccc(Cl)cc1Cl)c1ccc2ccccc2c1	pIC50 [1]: 6.10 to 7.70; Ratio IC50 [2]: 70 to 12500
	6.11	Cc1cc(Nc2ccc(C(F)(F)F)cc2)n2ccnc2n1	
	7.46	Cc1cc(Nc2ccc(C(F)(F)F)cc2)n2nc(C(F)(F)F)nc2n1	
	7.66	Cc1cc(Nc2cc(F)c(C(F)(F)F)c(F)c2)n2nc(C(F)(F)F)nc2n1	
	7.46	Cc1cc(Nc2ccc(C(F)(F)F)c(F)c2)n2nc(C(F)(F)F)nc2n1	
	7.92	Cc1cc(Nc2cc(F)c(C(F)(F)F)c(F)c2)n2nc(C(C)(F)F)nc2n1	
